Literature values, collected in publication PMC5014530 (Molecular Therapy. Nucleic Acids, 2016).

Test system: mitochondrial membranes

Q: Which “Mechanism of apoptosis induction” value does the source give for (KLAKLA)2 here?
A: disrupts mitochondrial membranes to cause apoptosis
